From patent US7759345B2, “Antitumoral derivatives of ET-743” (priority 2001, dated 2010)
Like-named read-outs stand apart in the source and are kept apart here.

Key:
[1] = tested on: SK-MEL-28; test: Inhibition of cells growth by colorimetric assay (SRB), SK-MEL-28; type: cell-based; conditions: for GI50 / CC50: Homo sapiens, SK-MEL-28, 48 h; for GI50: read-out: MEL-28 GI50
Summary of the method: (§1)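 Sulforhodamine B protein-stain readout (490 nm) after 48 h drug exposure, with GI, TGI and LC parameters calculated from triplicate means. Cells seeded at 5×10^3 per well, allowed 18 h drug-free attachment; dose range 10 to 10^−8 μg/ml, vehicle DMSO/EtOH/PBS (0.5:0.5:99).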

[2] = tested on: MDA-MB-231; test: Inhibition of cells growth by colorimetric assay (SRB), MDA-MB-231; type: cell-based; conditions: for CC50 / GI50: Homo sapiens; for CC50: MDA-MB-231, 48 h, read-out: MB-231 LC50; for GI50: MDA-MB-231, read-out: MB-231 GI50; for GI50 / MB-231 TGI: 48 hours exposure
Protocol: (§2) 2°.—Inhibition of Cells Growth by Colorimetric Assay.
(§3) A colorimetric type of assay, using sulforhodamine B (SRB) reaction has been adapted for a quantitative measurement of cell growth and viability [following the technique described by Philip Skehan, et al. (1990), New colorimetric cytotoxicity assay for anticancer drug screening, J. Natl. Cancer Inst., 82:1107-1112]
(§4) This form of the assay employs 96 well cell culture microplates of 9 mm diameter (Faircloth, 1988; Mosmann, 1983). Most of the cell lines are obtained from American Type Culture Collection (ATCC) derived from different human cancer types.
(§5) Cells are maintained in RPMI 1640 10% FBS, supplemented with 0.1 g/l penicillin and 0.1 g/l streptomycin sulfate and then incubated at 37° C., 5% CO2 and 98% humidity. For the experiments, cells were harvested from subconfluent cultures using trypsin and resuspended in fresh medium before plating.
(§6) Cells are seeded in 96 well microtiter plates, at 5×10^3 cells per well in aliquots of 195 μl medium, and they are allowed to attach to the plate surface by growing in drug free medium for 18 hours. Afterward, samples are added in aliquots of 5 μl in a ranging from 10 to 10^−8 μg/ml, dissolved in DMSO/EtOH/PBS (0.5:0.5:99). After 48 hours exposure, the antitumor effect are measured by the SRB methodology: cells are fixed by adding 50 μl of cold 50% (wt/vol) trichloroacetic acid (TCA) and incubating for 60 minutes at 4° C. Plates are washed with deionized water and dried. One hundred μl of SRB solution (0.4% wt/vol in 1% acetic acid) is added to each microtiter well and incubated for 10 minutes at room temperature. Unbound SRB is removed by washing with 1% acetic acid. Plates are air dried and bound stain is solubilized with Tris buffer. Optical densities are read on a automated spectrophotometric plate reader at a single wavelength of 490 nm.
(§7) The values for mean+/−SD of data from triplicate wells are calculated. Some parameters for cellular responses can be calculated: GI=growth inhibition, TGI=total growth inhibition (cytostatic effect) and LC=cell killing (cytotoxic effect).
(§8) Obtained results may predict the usefulness of a certain drug as a potential cancer treatment. For this technique, compounds which show GI50 values smaller than 10 μg/ml are selected to continue with further studies. GI50's data allow to predict that not only could a drug be cystostatic, but also it could have a potential in terms of tumor reduction.

[3] = tested on: HT-29; test: Inhibition of cells growth by colorimetric assay (SRB), HT-29; type: cell-based; conditions: for GI50 / LC50 (concentration for 50% cell killing): Homo sapiens, HT-29, 48 h; for GI50: read-out: HT-29 GI50
Summary of the method: as §1

[4] = tested on: MCF-7; test: Inhibition of cells growth by colorimetric assay (SRB), MCF-7; type: cell-based; conditions: for CC50 / GI50: Homo sapiens; for CC50: MCF7, 48 h, read-out: MCF LC50; for GI50: MCF7, read-out: MCF GI50; for GI50 / MCF TGI: 48 hours exposure
Protocol: as §2, §3, §4, §5, §6, §7, §8

[5] = tested on: Skeletal
Excerpt: (§9) Toxicity was asssessed by the methods reported in Toxicology in Vitro, 15 (2001) 571-577, J. Luber Narod et al.: “Evaluation of the use of in vitro methodolodies as tools for screening new compounds for potential in vivo toxicity”.

[6] = tested on: SW620; test: Inhibition of cells growth by colorimetric assay (SRB), SW620; type: cell-based; conditions: for LC50 / GI50: Homo sapiens; for LC50: SW-620, 48 h, read-out: SW-620 LC50; for GI50 / SW-620 TGI: 48 hours exposure; for GI50: read-out: SW-620 GI50
Protocol: as §2, §3, §4, §5, §6, §7, §8

[7] = tested on: A-549; test: Inhibition of cells growth by colorimetric assay (SRB), A-549; type: cell-based; conditions: for GI50 / LC50 (concentration for 50% cell killing): Homo sapiens, A549, 48 h; for GI50: read-out: A-549 GI50
Summary of the method: as §1

[8] = tested on: Myelo
Excerpt: as §9

[9] = tested on: DU-145; test: Inhibition of cells growth by colorimetric assay (SRB), DU-145; type: cell-based; conditions: for GI50 / CC50: Homo sapiens, DU-145, 48 h; for GI50: read-out: DU-145 GI50
Summary of the method: as §1

[10] = tested on: Kidney
Excerpt: as §9

[11] = tested on: A-498; test: Inhibition of cells growth by colorimetric assay (SRB), A-498; type: cell-based; conditions: for A-498 TGI / GI50: 48 hours exposure; for LC50 / GI50: Homo sapiens; for LC50: A498, 48 h, read-out: A-498 LC50; for GI50: A498, read-out: A-498 GI50
Protocol: as §2, §3, §4, §5, §6, §7, §8

[12] = tested on: Liver
Excerpt: as §9

[13] = tested on: Heart
Excerpt: as §9

Question: Which results are given for `COc1cc2c(cc1O)CCN[C@]21CS[C@@H]2c3c(OC(C)=O)c(C)c4c(c3[C@H](COC1=O)N1C2[C@H]2c3c(cc(C)c(OC)c3OC(=O)OC(C)(C)C)C[C@@H]([C@@H]1O)N2C)OCO4` (some centres unmarked) [Compound 97]?
Answer: GI50 ([1]; MEL-28, SRB, 48 hours exposure): 348 pM; CC50 ([1]; read-out: MEL-28 LC50, MEL-28, SRB, 48 hours exposure): 3480 pM; MEL-28 TGI ([1]; MEL-28, SRB, 48 hours exposure): 9.28E-10; CC50 [2]: 34800 pM; GI50 ([2]; MB-231, SRB): 348 pM; MB-231 TGI ([2]; MB-231, SRB): 6.96E-10; HT-29 TGI ([3]; HT-29, SRB, 48 hours exposure): 2.32E-09; GI50 [3]: 928 pM; LC50 (concentration for 50% cell killing) ([3]; read-out: HT-29 LC50, HT-29, SRB, 48 hours exposure): 9280 pM; CC50 [4]: 11600 pM; GI50 ([4]; MCF, SRB): 1160 pM; MCF TGI ([4]; MCF, SRB): 3.48E-09; Toxicity Data Skeletal [5]: 4.62E-09; LC50 [6]: 9280 pM; GI50 ([6]; SW-620, SRB): 580 pM; SW-620 TGI ([6]; SW-620, SRB): 2.32E-09; A-549 TGI ([7]; A-549, SRB, 48 hours exposure): 9.28E-10; GI50 ([7]; A-549, SRB, 48 hours exposure): 348 pM; LC50 (concentration for 50% cell killing) ([7]; read-out: A-549 LC50, A-549, SRB, 48 hours exposure): 3480 pM; Toxicity Data Myelo [8]: 1.77E-08; DU-145 TGI ([9]; DU-145, SRB, 48 hours exposure): 3.48E-10; GI50 ([9]; DU-145, SRB, 48 hours exposure): 232 pM; CC50 ([9]; read-out: DU-145 LC50, DU-145, SRB, 48 hours exposure): 928 pM; Toxicity Data Kidney [10]: 1.43E-08; A-498 TGI ([11]; A-498, SRB): 2.32E-09; LC50 [11]: 9280 pM; GI50 ([11]; A-498, SRB): 580 pM; Toxicity Data Liver [12]: 1.57E-08; Toxicity Data Heart [13]: 9.63E-08

Question: With `COc1cc2c(cc1O)CCN(C)[C@]21CS[C@@H]2c3c(OC(C)=O)c(C)c4c(c3[C@H](COC1=O)N1C2[C@@H]2N[C@@H](Cc3cc(C)c(OC)c(O)c32)[C@@H]1C#N)OCO4` (some centres unmarked) [Compound 209] as the compound, how does the GI50 ([1]; SRB assay, 48 hours exposure) read?
Answer: Its GI50 is 64.9 pM.

Question: What about the CC50 ([1]; read-out: MEL-28 LC50, SRB assay, 48 hours exposure) of the same compound?
Answer: The CC50 was 1300 pM.

Question: And the “MEL-28 TGI” value ([1]; SRB assay, 48 hours exposure)?
Answer: Its value is 2.60E-10.

Question: What about the CC50 [2] of the same compound?
Answer: Its CC50 is 1300 pM.

Question: What about the GI50 ([2]; SRB assay) of the same compound?
Answer: Its GI50 is 13 pM.

Question: And the “MB-231 TGI” value ([2]; SRB assay)?
Answer: Its value is 2.60E-10.

Question: What about the GI50 ([3]; SRB assay, 48 hours exposure) of the same compound?
Answer: The GI50 was 77.9 pM.

Question: What about the LC50 (concentration for 50% cell killing) ([3]; read-out: HT-29 LC50, SRB assay, 48 hours exposure) of the same compound?
Answer: The LC50 (concentration for 50% cell killing) was 1170 pM.

Question: And the “HT-29 TGI” value ([3]; SRB assay, 48 hours exposure)?
Answer: The value was 3.90E-10.

Question: What about the CC50 [4] of the same compound?
Answer: The CC50 was 5190 pM.

Question: What about the GI50 ([4]; SRB assay) of the same compound?
Answer: The GI50 was 260 pM.

Question: What about the “MCF TGI” value ([4]; SRB assay) of the same compound?
Answer: The value was 7.79E-10.

Question: And the LC50 [6]?
Answer: Its LC50 is 1300 pM.

Question: What about the GI50 ([6]; SW-620, SRB assay) of the same compound?
Answer: Its GI50 is 77.9 pM.

Question: And the “SW-620 TGI” value ([6]; SRB assay)?
Answer: Its value is 3.90E-10.

Question: And the GI50 ([7]; SRB assay, 48 hours exposure)?
Answer: Its GI50 is 90.9 pM.

Question: And the LC50 (concentration for 50% cell killing) ([7]; read-out: A-549 LC50, SRB assay, 48 hours exposure)?
Answer: The LC50 (concentration for 50% cell killing) was 1170 pM.

Question: And the “A-549 TGI” value ([7]; SRB assay, 48 hours exposure)?
Answer: Its value is 3.90E-10.

Question: And the GI50 ([9]; SRB assay, 48 hours exposure)?
Answer: The GI50 was 13 pM.

Question: And the CC50 ([9]; read-out: DU-145 LC50, SRB assay, 48 hours exposure)?
Answer: The CC50 was 130 pM.

Question: And the “DU-145 TGI” value ([9]; SRB assay, 48 hours exposure)?
Answer: Its value is 3.90E-11.

Question: And the LC50 [11]?
Answer: Its LC50 is 1300 pM.

Question: What about the GI50 ([11]; SRB assay) of the same compound?
Answer: Its GI50 is 130 pM.

Question: And the “A-498 TGI” value ([11]; SRB assay)?
Answer: Its value is 3.90E-10.
